Key:
[1] = Preemergence herbicidal activity (% control) against dicot weeds; details: pre-emergence, 336 h; for activity at 4483.4 g/ha: read-out: Herbicidal activity (% control), preemergence, dicots, 4 lb./A., average, about two weeks after application
wheat = experiment: Crop tolerance (selective herbicidal activity), wheat; type: in vivo
Method: (§1) The following test procedure is employed.
(§2) Following the general test procedure of Example 37, diphenyl ethers are evaluated for significant tolerance (as shown by 50% or less kill of the test crop at levels of application which give more than 50% kill of many or all of the weeds of Example 73) towards some or all of the following common agronomic crops (not all compounds tested against all crops): alfalfa, snapbeans, corn, cotton, cucumbers, peanuts, rape, rice, safflower, soybeans, tomatoes, and wheat.

rice = experiment: Crop tolerance (selective herbicidal activity), rice; type: in vivo
corn = experiment: Crop tolerance (selective herbicidal activity), corn; type: in vivo
Method: as §1, §2

[2] = Postemergence herbicidal activity (% control) against monocot weeds; type: in vivo; details: post-emergence, 336 h, average, about two weeks after application, read-out: Herbicidal activity (% control), postemergence, monocots; for activity at 2241.7 g/ha: 2 lb./A.; for activity at 4483.4 g/ha: 4 lb./A.
Description: (§3) barnyardgrass (Echinochloa crusgalli) crabgrass (Digitaria spp.) nutsedge (Cyperus esculentus)
(§4) At 2 and 4 pounds per acre:
(§5) **Bermudagrass (Cynodon dactylon)
(§6) *downy brome (Bromus tectorum) foxtail (Setaria faberii)
(§7) Johnsongrass (Sorghum halepense) […]
(§8) quackgrass (Agropyron repens)
(§9) *ryegrass (Lolium perenne)
(§10) *wild oats (Avena factua)
(§11) *yellow millet (Panicum miliaceum)
as §1

soybeans = experiment: Crop tolerance (selective herbicidal activity), soybeans; type: in vivo; details: preemergence applications
Method: as §1, §2

[3] = Preemergence herbicidal activity (% control) against monocot weeds; type: in vivo; details: pre-emergence, 336 h, average, about two weeks after application, read-out: Herbicidal activity (% control), preemergence, monocots; for activity at 2241.7 g/ha: 2 lb./A.; for activity at 4483.4 g/ha: 4 lb./A.
Description: as §3, §4, §5, §6, §7, §8, §9, §10, §11, §1

[4] = Postemergence herbicidal activity (% control) against dicot weeds; details: post-emergence, 336 h; for activity at 2241.7 g/ha: read-out: Herbicidal activity (% control), postemergence, dicots, 2 lb./A., average, about two weeks after application; for activity at 4483.4 g/ha: read-out: Herbicidal activity (% control), postemergence, dicots, 4 lb./A., average, about two weeks after application
peanuts = experiment: Crop tolerance (selective herbicidal activity), peanuts; type: in vivo
[5] = postemergence applications or applications on transplanted rice

Structure (SMILES) | activity at 2241.7 g/ha ([1]; read-out: Herbicidal activity (% control), preemergence, dicots, 2 lb./A., average, about two weeks after application) | activity at 4483.4 g/ha [1] | Tolerance to wheat (wheat; preemergence applications) | Tolerance to rice (rice; [5]) | Tolerance to rice (rice; preemergence applications) | Tolerance to corn (corn; postemergence applications) | Tolerance to corn (corn; preemergence applications) | activity at 2241.7 g/ha [2] | activity at 4483.4 g/ha [2] | Tolerance to soybeans (soybeans) | activity at 2241.7 g/ha [3] | activity at 4483.4 g/ha [3] | activity at 2241.7 g/ha [4] | activity at 4483.4 g/ha [4] | Tolerance to peanuts (peanuts; postemergence applications) | Tolerance to peanuts (peanuts; preemergence applications) | Tolerance to wheat (wheat; postemergence applications)
CSCCOc1cc(Oc2ccc(C(F)(F)F)cc2Cl)ccc1[N+](=O)[O-] [Example 40] | 98% | 92% | Tolerance (significant tolerance (as shown by 50% or less kill of the test crop at levels of application which give more than 50% kill of many or all of the weeds of Example 73)) | Tolerance (significant tolerance (as shown by 50% or less kill of the test crop at levels of application which give more than 50% kill of many or all of the weeds of Example 73)) | Tolerance (significant tolerance (as shown by 50% or less kill of the test crop at levels of application which give more than 50% kill of many or all of the weeds of Example 73)) | Tolerance (significant tolerance (as shown by 50% or less kill of the test crop at levels of application which give more than 50% kill of many or all of the weeds of Example 73)) | Tolerance (significant tolerance (as shown by 50% or less kill of the test crop at levels of application which give more than 50% kill of many or all of the weeds of Example 73)) | 81% | 64% | Tolerance (significant tolerance (as shown by 50% or less kill of the test crop at levels of application which give more than 50% kill of many or all of the weeds of Example 73)) | 88% | 86% | 100% | 100% | Tolerance (significant tolerance (as shown by 50% or less kill of the test crop at levels of application which give more than 50% kill of many or all of the weeds of Example 73)) | Tolerance (significant tolerance (as shown by 50% or less kill of the test crop at levels of application which give more than 50% kill of many or all of the weeds of Example 73)) | 
CCN(CCO)c1cc(Oc2ccc(C(F)(F)F)cc2Cl)ccc1[N+](=O)[O-] [Example 54] |  | 75% | Tolerance (significant tolerance (as shown by 50% or less kill of the test crop at levels of application which give more than 50% kill of many or all of the weeds of Example 73)) | Tolerance (significant tolerance (as shown by 50% or less kill of the test crop at levels of application which give more than 50% kill of many or all of the weeds of Example 73)) | Tolerance (significant tolerance (as shown by 50% or less kill of the test crop at levels of application which give more than 50% kill of many or all of the weeds of Example 73)) | Tolerance (significant tolerance (as shown by 50% or less kill of the test crop at levels of application which give more than 50% kill of many or all of the weeds of Example 73)) | Tolerance (significant tolerance (as shown by 50% or less kill of the test crop at levels of application which give more than 50% kill of many or all of the weeds of Example 73)) | 71% | 79% | Tolerance (significant tolerance (as shown by 50% or less kill of the test crop at levels of application which give more than 50% kill of many or all of the weeds of Example 73)) | 98% | 83% | 100% | 100% | Tolerance (significant tolerance (as shown by 50% or less kill of the test crop at levels of application which give more than 50% kill of many or all of the weeds of Example 73)) |  | Tolerance (significant tolerance (as shown by 50% or less kill of the test crop at levels of application which give more than 50% kill of many or all of the weeds of Example 73))

From patent publication US4419123A, “Herbicidal 4-trifluoromethyl-3'-carbon-substituted-4'-substituted diphenyl ethers” (Rohm and Haas Company, priority 1981, dated 1983)
